The subject of one test is Sprague-Dawley rats. Briefly: Two-trial novel object recognition in scopolamine treated rats. It counts as in vivo, rat. The note with it: 0.3 mg/kg. On the procedure: Ennaceur, A., and Delacour, J. (1988), Behav. Brain Res. 31:47-59. […] See, e.g., Scali, C., et al., (1994), Neurosci. Letts. […] 53:277-283.
Male Sprague-Dawley rats between six and seven weeks old, weighing between 220-300 grams are obtained from Centre d'Elevage (Rue Janvier, B. P. 55, Le Genest-Saint-Isle 53940, France). The animals are housed in groups of 2 to 4 in polypropylene cages (with a floor area of 1032 cm^2) under standard conditions: at RT (22±2° C.), under a 12 h light/12 h dark cycle, with food and water provided ad libitum.
The experimental arena is a square wooden box (60 cm×60 cm×40 cm) painted dark blue, with 15 cm×15 cm black squares under a clear plexiglass floor. The arena and objects placed inside the arena are cleaned with water between each trial to eliminate any odor trails left by rats. […]
Novel object recognition test is comprised of two trials separated by an interval of 120 min. or 24 hours. […] The time required for each animal to complete 15 seconds of object exploration is determined, with a cut-off time of four min. […] Rats are placed back in the arena for three min., and exploration of both objects is determined. Locomotor activity of rats (number of times rats cross grid lines visible under the clear plexiglass floor) is scored for during T1 and T2. […]
Recognition scores and % of good learners for compounds of the invention are determined.

The target of test [1] is T1, human recombinant serotonin 5-HT7 receptor (Homo sapiens, UniProt P34969).
T1 construct: expressed in transfected cells; host or cells: CHO cells
T1 sequence (P34969 whole entry): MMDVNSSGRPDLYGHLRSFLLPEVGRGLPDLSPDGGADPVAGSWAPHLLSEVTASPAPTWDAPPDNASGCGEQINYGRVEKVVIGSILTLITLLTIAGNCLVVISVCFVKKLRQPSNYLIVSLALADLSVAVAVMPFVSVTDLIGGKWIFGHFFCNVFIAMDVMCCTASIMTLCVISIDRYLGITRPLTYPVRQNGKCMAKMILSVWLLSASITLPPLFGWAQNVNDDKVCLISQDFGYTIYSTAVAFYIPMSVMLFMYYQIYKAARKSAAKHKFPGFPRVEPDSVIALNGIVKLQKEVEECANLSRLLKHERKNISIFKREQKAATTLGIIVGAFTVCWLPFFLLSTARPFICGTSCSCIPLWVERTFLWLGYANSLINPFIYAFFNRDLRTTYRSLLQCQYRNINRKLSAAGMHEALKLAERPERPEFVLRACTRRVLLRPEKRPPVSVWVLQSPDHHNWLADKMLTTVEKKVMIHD
Briefly: 5-HT7 antagonist functional assay (cAMP, HTRF, CHO cells). It counts as cell-based. The note with it: vs 100 nM 5-HT. An excerpt:
To determine for agonist or antagonist activity of compounds of the invention in functional assays, human recombinant serotonin 5-HT2A receptor expressed in human embryonic kidney (HEK-293) cells (Jerman J C, Brough S J, Gager T, Wood M, Coldwell M C, Smart D and Middlemiss D N, Eur J Pharmacol, 414: 23-30, 2001) or human recombinant serotonin 5-HT7 receptor expressed in CHO cells (Adham, et al. J. Pharmacol. Exp. Ther. 287:508-514, 1998) was used. Cells were suspended in DMEM buffer, and distributed in microplates. For the 5-HT2A assay, a cytoplasmic calcium fluorescent indicator which varies proportionally to the free cytosolic Ca^2+ ion concentration was mixed with probenicid in HBSS buffer complemented with 20 mM Hepes (pH 7.4), added into each well and equilibrated with the cells for 30 min. at 37° C. followed by 30 min. at 22° C. For the 5-HT7 assay, the reaction product was cAMP, detected by HTRF.
The standard reference antagonist was ketanserin (5-HT2A) or mesulergine (5-HT7), which was tested in each experiment at several concentrations to generate a concentration-response curve from which its IC50 value was calculated. Compounds were screened at […] or lower, using DMSO as vehicle.
Background: In TR-FRET formats the signal depends on donor and acceptor labels being close together.

In test [2] the target is T2, human recombinant serotonin 5-HT1B receptor (Homo sapiens, UniProt P28222).
T2 construct: expressed in transfected cells; host or cells: CHO-K1 cell line, membrane extracts
T2 sequence (P28222 whole entry): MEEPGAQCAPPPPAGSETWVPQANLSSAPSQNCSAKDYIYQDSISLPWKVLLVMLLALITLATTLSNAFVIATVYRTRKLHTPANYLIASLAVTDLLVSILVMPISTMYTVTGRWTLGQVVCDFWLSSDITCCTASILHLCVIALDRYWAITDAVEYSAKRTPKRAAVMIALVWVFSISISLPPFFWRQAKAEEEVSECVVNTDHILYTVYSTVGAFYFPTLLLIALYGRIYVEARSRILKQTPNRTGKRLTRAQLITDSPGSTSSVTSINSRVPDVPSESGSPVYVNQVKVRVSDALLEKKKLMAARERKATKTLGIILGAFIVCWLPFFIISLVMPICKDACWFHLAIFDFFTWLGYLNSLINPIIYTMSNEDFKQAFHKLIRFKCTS
Briefly: 5-HT1B radioligand binding competition assay ([3H]5-CT, CHO-K1 membranes). The note with it: 5 μM, in duplicate, average. As to the method:
To determine the binding activity at the human recombinant serotonin 5-HT1B receptor of compounds of the invention, CHO-K1 cell line expressing the human 5-HT1B recombinant receptor was amplified to prepare membranes used for the radioligand binding assay throughout the study. Radioligand binding competition on 5-HT1B was performed by adding successively in the wells of a 96 well plate (Master Block, Greiner, 786201). […] The plate was incubated 60 min at 25° C. in a water bath and then filtered over GF/B filters (Perkin Elmer, 6005177, presoaked in 0.5% PE1 for 2 h at room temperature) with a Filtration unit (Perkin Elmer). The filters were washed 3× with 0.5 mL of ice-cold washing buffer (50 mM Tris pH 7.4). 50 μL Microscint 20 (Packard) was added and the plate was incubated 15 min on an orbital shaker and then counted with a TopCount™ for 1 min/well.
The reference value thus obtained for the test was compared to a historical value obtained from the same receptor and used to validate the experimental session. […] For replicate determinations, the maximum variability tolerated in the test was of +/−20% around the average of the replicates.
Compounds were tested for binding activity in the radioligand binding competition assay on human 5-HT1B receptor, at one concentration […], in duplicate. Dose-response data from test compounds were analyzed with XLfit (IDBS) software using nonlinear regression applied to a sigmoidal dose-response model.
Dose-response data was analyzed with XLfit (IDBS) software using non-linear regression applied to a sigmoidal dose-response model.

pIC50: −log10 of the molar value. Where “and” joins values, the source holds several entries; their conditions need not be identical. Identical values can stand only once.

On to `C/C(=C\n1c2c(c3cc(Cl)ccc31)CN(C)CC2)c1ccncc1` [Compound 90, (E)-8-chloro-2,3,4,5-tetrahydro-2-methyl-5-(2-(pyridin-4-yl)prop-1-enyl)-1H-pyrido[4,3-b]indole], for which the “activity in object recognition in the presence of scopolamine” value in the test on Sprague-Dawley rats is listed as “activity”. What is called pIC50 is −log10 of the IC50, conventionally taken in molar units. As for `C/C(=C\n1c2c(c3cc(Cl)ccc31)CN(C)CC2)c1ccc(F)cc1` [Compound 83, (E)-8-chloro-5-(2-(4-fluorophenyl)prop-1-enyl)-2,3,4,5-tetrahydro-2-methyl-1H-pyrido[4,3-b]indole], the pIC50 in test [1] was 6.34 and 6.11. On to `COc1ccc(C(C)(O)Cn2c3c(c4cc(C)ccc42)CN(C)CC3)cc1` (stereo not drawn) [Compound 174, 1-(2,8-dimethyl-3,4-dihydro-1H-pyrido[4,3-b]indol-5(2H)-yl)-2-(4-methoxyphenyl)propan-2-ol], for which, in test [2], the “5-HT1B (5 μM) % Binding relative to bound radioligand” value came to 16%.

Values taken from patent publication US8906925B2, “Pyrido[4,3-B]indoles containing rigid moieties” (Medivation Technologies, Inc., priority 2008, dated 2014).
